These results are taken from US8410302B2, “Methoxyimino compounds and fungicide composition comprising same” (Kyung Nong Corporation, priority 2007, dated 2013).

For one experiment, the system named is Puccinia recondita. In words: Fungicidal activity against wheat leaf rust (WLR) disease, control value. It is filed as in vivo. Particulars: wheat leaf rust.
In the next experiment the test system is Botrytis cinerae. Description: Fungicidal activity against cucumber gray mold rot (CGM) disease, control value. It is filed as in vivo. Particulars: 100 ppm, cucumber gray mold rot.
The subject of a further experiment is Phytophthora infestans. In words: whole plant or invertebrate. It is filed as in vivo. Particulars: tomato late blight.
In experiment [1] the test system is Pyricularia oryzae Carvara KA301. In words: whole plant or invertebrate. Particulars: rice blast. It is filed as in vivo.
The next experiment relates to Rhizoctonia solani AG-1. In words: Fungicidal activity against rice sheath blight (RSB) disease, control value. Particulars: rice sheath blight.
For a further experiment, the system named is Erysiphae graminis. Description: Fungicidal activity against barley powdery mildew (BPM) disease, control value. It is filed as in vivo. Particulars: barley powdery mildew.

With `CO/N=C(/C(=O)OC)c1ccccc1CON=C(C)c1cccc(C=C(Br)Br)c1` [Example 23, methyl-(E)-2-[[[[[2-[3-(2,2-dibromovinyl)phenyl](1-methyl)methylidene]amino]oxy]methyl]phenyl]-2-methoxyiminoacetate], in the experiment on Puccinia recondita (100 ppm), the “WLR control value (C.V.)” value was determined as 80%. The “CGM control value (C.V.)” value with Botrytis cinerae is given as 34%. The “TLB control value (C.V.)” value in the experiment on Phytophthora infestans (50 ppm) is 55%; with Phytophthora infestans (100 ppm), 93%. Further, the “RCB control value (C.V.)” value amounted to 90% in experiment [1] (2 ppm), 97% in experiment [1] (10 ppm), 100% in experiment [1] (50 ppm) and 100% in experiment [1] (100 ppm). The “RSB control value (C.V.)” value was found to be 98% with Rhizoctonia solani AG-1 (2 ppm), 100% in the experiment with Rhizoctonia solani AG-1 (10 ppm), 100% in the experiment with Rhizoctonia solani AG-1 (50 ppm) and 100% in the experiment with Rhizoctonia solani AG-1 (100 ppm). In addition, the “BPM control value (C.V.)” value in the experiment with Erysiphae graminis (2 ppm) amounted to 20%; in the experiment with Erysiphae graminis (10 ppm) it was 50%; in the experiment on Erysiphae graminis (50 ppm), 80%; in the experiment on Erysiphae graminis (100 ppm), 95%.

In the case of `CNC(=O)/C(=N/OC)c1ccccc1CON=C(C)c1cccc(C=C(Br)Br)c1` [Example 24, (E)-2-[[[[[2-[3-(2,2-dibromovinyl)phenyl](1-methyl)methylidene]amino]oxy]methyl]phenyl]-2-methoxyimino-N-methylacetamide], the “WLR control value (C.V.)” value is listed as 0% in the experiment with Puccinia recondita (2 ppm), 35% in the experiment on Puccinia recondita (10 ppm), 95% in the experiment with Puccinia recondita (50 ppm) and 98% with Puccinia recondita (100 ppm). The “CGM control value (C.V.)” value in the experiment with Botrytis cinerae amounted to 60%. The “TLB control value (C.V.)” value in the experiment on Phytophthora infestans (100 ppm) came out at 50%. For the same compound, the “RCB control value (C.V.)” value in experiment [1] (2 ppm) is on record as 98%; in experiment [1] (10 ppm), 100%; in experiment [1] (50 ppm), 100%; in experiment [1] (100 ppm) it was 100%. The “RSB control value (C.V.)” value with Rhizoctonia solani AG-1 (2 ppm) is listed as 30%; in the experiment with Rhizoctonia solani AG-1 (10 ppm), 90%; in the experiment with Rhizoctonia solani AG-1 (50 ppm) it was 100%; with Rhizoctonia solani AG-1 (100 ppm), 100%. Also, the “BPM control value (C.V.)” value in the experiment with Erysiphae graminis (2 ppm) is given as 10%; in the experiment on Erysiphae graminis (10 ppm), 60%; with Erysiphae graminis (50 ppm), 90%; in the experiment with Erysiphae graminis (100 ppm), 100%.

In the case of `CO/N=C(/C(=O)OC)c1ccccc1CON=C(C)c1ccc(C=C(Br)Br)cc1` [Example 25, methyl-(E)-2-[[[[[2-[4-(2,2-dibromovinyl)phenyl](1-methyl)methylidene]amino]oxy]methyl]phenyl]-2-methoxyiminoacetate], the “WLR control value (C.V.)” value in the experiment with Puccinia recondita (2 ppm), in the experiment on Puccinia recondita (10 ppm), with Puccinia recondita (50 ppm) and with Puccinia recondita (100 ppm) was 100% throughout. For the same compound, the “CGM control value (C.V.)” value with Botrytis cinerae turned out to be 35%. For the same compound, the “TLB control value (C.V.)” value in the experiment with Phytophthora infestans (2 ppm) worked out at 93%; in the experiment on Phytophthora infestans (10 ppm), 100%; with Phytophthora infestans (50 ppm), 100%; with Phytophthora infestans (100 ppm), 100%. Further, the “RCB control value (C.V.)” value in experiment [1] (2 ppm), in experiment [1] (10 ppm), in experiment [1] (50 ppm) and in experiment [1] (100 ppm) was 100% in each case. Moreover, the “RSB control value (C.V.)” value with Rhizoctonia solani AG-1 (2 ppm) worked out at 90%; with Rhizoctonia solani AG-1 (10 ppm), 98%; in the experiment with Rhizoctonia solani AG-1 (50 ppm), 100%; with Rhizoctonia solani AG-1 (100 ppm), 100%. For the same compound, the “BPM control value (C.V.)” value with Erysiphae graminis (2 ppm), in the experiment on Erysiphae graminis (10 ppm), in the experiment on Erysiphae graminis (50 ppm) and in the experiment with Erysiphae graminis (100 ppm) was 100% throughout.

Consider `CNC(=O)/C(=N/OC)c1ccccc1CON=C(C)c1ccc(C=C(Br)Br)cc1` [Example 26, (E)-2-[[[[[2-[4-(2,2-dibromovinyl)phenyl](1-methyl)methylidene]amino]oxy]methyl]phenyl]-2-methoxyimino-N-methylacetamide], for which the “WLR control value (C.V.)” value in the experiment with Puccinia recondita (2 ppm) amounted to 90%; in the experiment with Puccinia recondita (10 ppm), 90%; in the experiment with Puccinia recondita (50 ppm) it was 98%; in the experiment on Puccinia recondita (100 ppm), 100%. The “CGM control value (C.V.)” value in the experiment with Botrytis cinerae is given as 7%. Besides, the “TLB control value (C.V.)” value in the experiment on Phytophthora infestans (2 ppm) is 98%; in the experiment on Phytophthora infestans (10 ppm), 100%; in the experiment with Phytophthora infestans (50 ppm), 100%; in the experiment with Phytophthora infestans (100 ppm), 100%. For the same compound, the “RCB control value (C.V.)” value is 90% in experiment [1] (2 ppm), 97% in experiment [1] (10 ppm), 100% in experiment [1] (50 ppm) and 100% in experiment [1] (100 ppm). Further, in the experiment with Rhizoctonia solani AG-1 (100 ppm), the “RSB control value (C.V.)” value was 32%. The “BPM control value (C.V.)” value with Erysiphae graminis (2 ppm) came out at 99%; in the experiment on Erysiphae graminis (10 ppm) it was 100%; in the experiment on Erysiphae graminis (50 ppm) it was 100%; in the experiment on Erysiphae graminis (100 ppm) it was 100%.

Consider `CO/N=C(/C(=O)OC)c1ccccc1CON=C(C)c1cccc(C=C(F)F)c1` [Example 27, methyl-(E)-2-[[[[[2-[3-(2,2-difluorovinyl)phenyl](1-methyl)methylidene]amino]oxy]methyl]phenyl]-2-methoxyiminoacetate], for which the “WLR control value (C.V.)” value in the experiment on Puccinia recondita (2 ppm), in the experiment with Puccinia recondita (10 ppm), with Puccinia recondita (50 ppm) and in the experiment on Puccinia recondita (100 ppm) was 100% throughout. For the same compound, in the experiment with Botrytis cinerae, the “CGM control value (C.V.)” value came to 55%. The “TLB control value (C.V.)” value in the experiment on Phytophthora infestans (2 ppm) was found to be 98%; in the experiment on Phytophthora infestans (10 ppm), 100%; in the experiment with Phytophthora infestans (50 ppm) it was 100%; in the experiment on Phytophthora infestans (100 ppm), 100%. The “RCB control value (C.V.)” value in experiment [1] (2 ppm) is recorded as 90%; in experiment [1] (10 ppm), 97%; in experiment [1] (50 ppm), 100%; in experiment [1] (100 ppm), 100%. For the same compound, in the experiment with Rhizoctonia solani AG-1 (100 ppm), the “RSB control value (C.V.)” value came out at 0%. Moreover, the “BPM control value (C.V.)” value in the experiment with Erysiphae graminis (2 ppm) was determined as 98%; in the experiment with Erysiphae graminis (10 ppm) it was 100%; with Erysiphae graminis (50 ppm), 100%; in the experiment on Erysiphae graminis (100 ppm) it was 100%.

`CNC(=O)/C(=N/OC)c1ccccc1CON=C(C)c1cccc(C=C(F)F)c1` [Example 28, (E)-2-[[[[[2-[3-(2,2-difluorovinyl)phenyl](1-methyl)methylidene]amino]oxy]methyl]phenyl]-2-methoxyimino-N-methylacetamide]: the “WLR control value (C.V.)” value in the experiment on Puccinia recondita (2 ppm) worked out at 40%; with Puccinia recondita (10 ppm), 90%; with Puccinia recondita (50 ppm), 100%; with Puccinia recondita (100 ppm), 100%. For the same compound, the “CGM control value (C.V.)” value with Botrytis cinerae stood at 50%. The “TLB control value (C.V.)” value in the experiment with Phytophthora infestans (100 ppm) was 60%. Moreover, the “RCB control value (C.V.)” value in experiment [1] (50 ppm) was 70%; in experiment [1] (100 ppm), 95%. Moreover, the “RSB control value (C.V.)” value in the experiment with Rhizoctonia solani AG-1 (100 ppm) came to 35%. Further, the “BPM control value (C.V.)” value with Erysiphae graminis (50 ppm) worked out at 60%; in the experiment with Erysiphae graminis (100 ppm), 90%.

As for `CO/N=C(/C(=O)OC)c1ccccc1CON=C(C)c1ccc(C=C(F)F)cc1` [Example 29, methyl-(E)-2-[[[[[2-[4-(2,2-difluorovinyl)phenyl](1-methyl)methylidene]amino]oxy]methyl]phenyl]-2-methoxyiminoacetate], the “WLR control value (C.V.)” value in the experiment on Puccinia recondita (2 ppm), in the experiment on Puccinia recondita (10 ppm), with Puccinia recondita (50 ppm) and in the experiment on Puccinia recondita (100 ppm) was 100% throughout. Also, in the experiment on Botrytis cinerae, the “CGM control value (C.V.)” value is reported as 24%. Moreover, the “TLB control value (C.V.)” value in the experiment on Phytophthora infestans (2 ppm), in the experiment with Phytophthora infestans (10 ppm), in the experiment with Phytophthora infestans (50 ppm) and in the experiment on Phytophthora infestans (100 ppm) was 100% each time. The “RCB control value (C.V.)” value in experiment [1] (2 ppm), in experiment [1] (10 ppm), in experiment [1] (50 ppm) and in experiment [1] (100 ppm) was 100% in each case. Moreover, in the experiment with Rhizoctonia solani AG-1 (100 ppm), the “RSB control value (C.V.)” value came to 30%. Also, the “BPM control value (C.V.)” value amounted to 15% with Erysiphae graminis (2 ppm), 60% in the experiment on Erysiphae graminis (10 ppm), 93% in the experiment with Erysiphae graminis (50 ppm) and 100% in the experiment on Erysiphae graminis (100 ppm).

Regarding `CNC(=O)/C(=N/OC)c1ccccc1CON=C(C)c1ccc(C=C(F)F)cc1` [Example 30, (E)-2-[[[[[2-[4-(2,2-difluorovinyl)phenyl](1-methyl)methylidene]amino]oxy]methyl]phenyl]-2-methoxyimino-N-methylacetamide], the “WLR control value (C.V.)” value with Puccinia recondita (2 ppm) was 90%; with Puccinia recondita (10 ppm), 100%; with Puccinia recondita (50 ppm) it was 100%; in the experiment on Puccinia recondita (100 ppm), 100%. The “CGM control value (C.V.)” value in the experiment on Botrytis cinerae is 60%. Further, the “TLB control value (C.V.)” value in the experiment on Phytophthora infestans (2 ppm), in the experiment with Phytophthora infestans (10 ppm), with Phytophthora infestans (50 ppm) and in the experiment on Phytophthora infestans (100 ppm) was 100% in each case. Further, the “RCB control value (C.V.)” value in experiment [1] (2 ppm), in experiment [1] (10 ppm), in experiment [1] (50 ppm) and in experiment [1] (100 ppm) was 100% throughout. Moreover, the “RSB control value (C.V.)” value in the experiment on Rhizoctonia solani AG-1 (100 ppm) is recorded as 45%. Besides, the “BPM control value (C.V.)” value in the experiment with Erysiphae graminis (50 ppm) is listed as 60%; in the experiment on Erysiphae graminis (100 ppm) it was 98%.

For the compound `CO/N=C(/C(=O)OC)c1ccccc1CON=C(C)c1cccc(C=C(F)Cl)c1` [Example 31, methyl-(E)-2-[[[[[2-[3-(2-chloro-2-fluorovinyl)phenyl](1-methyl)methylidene]amino]oxy]methyl]phenyl]-2-methoxyiminoacetate], the “WLR control value (C.V.)” value is on record as 40% in the experiment with Puccinia recondita (10 ppm), 90% with Puccinia recondita (50 ppm) and 100% in the experiment with Puccinia recondita (100 ppm). The “CGM control value (C.V.)” value with Botrytis cinerae came to 43%. Also, the “TLB control value (C.V.)” value in the experiment on Phytophthora infestans (100 ppm) was determined as 60%. In addition, the “RCB control value (C.V.)” value in experiment [1] (50 ppm) is 70%; in experiment [1] (100 ppm), 95%. Moreover, the “RSB control value (C.V.)” value with Rhizoctonia solani AG-1 (100 ppm) turned out to be 30%. Also, the “BPM control value (C.V.)” value in the experiment on Erysiphae graminis (50 ppm) is on record as 60%; in the experiment on Erysiphae graminis (100 ppm) it was 90%.
